# Results reported in ChEMBL document CHEMBL2413077, “Anion inhibition studies of the α-carbonic anhydrase from the protozoan pathogen Trypanosoma cruzi, the causative agent of Chagas disease” (Bioorg Med Chem, 2013).
# Target: Trypanosoma cruzi
# Assay type: organism-based, CL Brener
# Conditions: sf9
row,SMILES,Ki
1,O=S([O-])O.[Na+] [SODIUM BISULFITE],910 µM
2,O=[N+]([O-])[O-].[Na+] [SODIUM NITRATE],770 µM
3,O=[As](O)(O)c1ccccc1 [PHENYLARSONIC ACID],620 µM
4,O=C([O-])[O-].[Na+].[Na+] [SODIUM CARBONATE],690 µM
5,O=NO [SODIUM NITRITE],700 µM
6,F[B-](F)(F)F.[Na+] [SODIUM TETRAFLUOROBORATE],> 100000 µM
7,NS(N)(=O)=O [SULFAMIDE],120 µM
8,N#CO [SODIUM CYANATE],80 µM
9,O=C([O-])O.[Na+] [SODIUM BICARBONATE],580 µM
10,O=S(=O)([O-])[O-].[Na+].[Na+] [SODIUM SULFATE ANHYDROUS],6900 µM
11,O=[Te](=O)(O)O [SODIUM TELLURATE],710 µM
12,S [SODIUM HYDROSULFIDE],78 µM
13,O=[Se](=O)(O)O [SODIUM SELENATE],660 µM
14,[I-].[Na+] [SODIUM IODIDE],44 µM
15,[F-].[Na+] [SODIUM FLUORIDE],900 µM
16,[Cl-].[Na+] [SODIUM CHLORIDE],810 µM
17,[Br-].[Na+] [SODIUM BROMIDE],730 µM
18,O=S(=O)(O)ONOS(=O)(=O)O [SODIUM IMINODISULFATE],7100 µM
19,O=S(=O)(O)OS(=O)(=O)O [SODIUM PYROSULFATE],760 µM
20,CCN(CC)C(=S)S [DITIOCARB SODIUM],5 µM
21,OB(O)c1ccccc1 [PHENYLBORONIC ACID],860 µM
22,N#C[SeH] [SODIUM SELENOCYANATE],780 µM
23,O=S(=O)(O)OOS(=O)(=O)O [SODIUM PERSULFATE],840 µM
24,O=BOB(O)OB(O)OB=O [SODIUM TETRABORATE],24300 µM
25,NS(=O)(=O)O [SULFAMATE],10600 µM
26,[O-][Cl+3]([O-])([O-])O [SODIUM PERCHLORATE],> 100000 µM
27,[N-]=[N+]=[N-] [SODIUM AZIDE],1120 µM
